ChEMBL document CHEMBL4118156, “Design, synthesis and evaluation of vilazodone-tacrine hybrids as multitarget-directed ligands against depression with cognitive impairment” (Bioorg Med Chem, 2018)

Legend:
[1] = target: T1, 5-hydroxytryptamine receptor 1A (Homo sapiens, UniProt P08908)
T1 sequence (P08908 whole entry): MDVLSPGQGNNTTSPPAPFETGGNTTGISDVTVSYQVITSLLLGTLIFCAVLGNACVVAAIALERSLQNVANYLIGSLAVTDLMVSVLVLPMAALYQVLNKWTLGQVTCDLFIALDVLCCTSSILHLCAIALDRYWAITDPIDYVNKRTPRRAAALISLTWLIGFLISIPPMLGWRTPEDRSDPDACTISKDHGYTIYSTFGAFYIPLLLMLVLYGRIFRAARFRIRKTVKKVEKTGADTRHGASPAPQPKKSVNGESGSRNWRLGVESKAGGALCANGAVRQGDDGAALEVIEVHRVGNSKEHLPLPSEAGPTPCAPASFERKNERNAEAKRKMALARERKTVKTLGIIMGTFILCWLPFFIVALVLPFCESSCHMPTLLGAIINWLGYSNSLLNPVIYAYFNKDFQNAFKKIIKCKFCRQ
Description: Agonist activity at human 5-HT1A receptor expressed in HEK293 cells after 60 mins by Eu-cAMP solution based ultra LANCE assay

Acetylcholinesterase = target: T2, Acetylcholinesterase (Rattus norvegicus, UniProt P37136); test: Inhibition of rat cortex AChE using acetylthiocholine iodide as substrate after 20 mins by Ellman's method
T2 sequence (P37136 whole entry): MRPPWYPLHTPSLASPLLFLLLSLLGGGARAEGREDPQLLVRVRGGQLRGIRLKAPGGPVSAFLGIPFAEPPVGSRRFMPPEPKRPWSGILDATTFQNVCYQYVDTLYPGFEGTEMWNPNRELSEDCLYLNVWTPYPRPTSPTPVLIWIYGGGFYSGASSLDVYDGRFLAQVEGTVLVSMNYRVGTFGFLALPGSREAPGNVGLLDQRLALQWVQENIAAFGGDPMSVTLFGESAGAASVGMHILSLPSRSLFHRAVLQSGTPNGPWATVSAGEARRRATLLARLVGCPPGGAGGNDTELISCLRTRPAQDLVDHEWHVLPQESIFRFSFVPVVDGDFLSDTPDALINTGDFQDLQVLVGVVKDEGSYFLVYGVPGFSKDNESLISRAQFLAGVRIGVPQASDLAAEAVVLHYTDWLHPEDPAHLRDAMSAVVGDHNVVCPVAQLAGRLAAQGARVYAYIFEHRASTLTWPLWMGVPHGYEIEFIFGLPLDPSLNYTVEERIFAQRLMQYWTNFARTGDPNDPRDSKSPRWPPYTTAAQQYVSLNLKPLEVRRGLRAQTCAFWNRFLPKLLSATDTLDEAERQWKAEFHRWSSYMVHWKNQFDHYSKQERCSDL

in vitro [2] = details: PAMPA
Description: Effective permeability of the compound in PBS/ethanol buffer after 12 hrs by PAMPA

Butyrylcholinesterase [3] = target: T3, Butyrylcholinesterase (Rattus norvegicus, UniProt Q9JKC1)
T3 sequence (Q9JKC1 whole entry): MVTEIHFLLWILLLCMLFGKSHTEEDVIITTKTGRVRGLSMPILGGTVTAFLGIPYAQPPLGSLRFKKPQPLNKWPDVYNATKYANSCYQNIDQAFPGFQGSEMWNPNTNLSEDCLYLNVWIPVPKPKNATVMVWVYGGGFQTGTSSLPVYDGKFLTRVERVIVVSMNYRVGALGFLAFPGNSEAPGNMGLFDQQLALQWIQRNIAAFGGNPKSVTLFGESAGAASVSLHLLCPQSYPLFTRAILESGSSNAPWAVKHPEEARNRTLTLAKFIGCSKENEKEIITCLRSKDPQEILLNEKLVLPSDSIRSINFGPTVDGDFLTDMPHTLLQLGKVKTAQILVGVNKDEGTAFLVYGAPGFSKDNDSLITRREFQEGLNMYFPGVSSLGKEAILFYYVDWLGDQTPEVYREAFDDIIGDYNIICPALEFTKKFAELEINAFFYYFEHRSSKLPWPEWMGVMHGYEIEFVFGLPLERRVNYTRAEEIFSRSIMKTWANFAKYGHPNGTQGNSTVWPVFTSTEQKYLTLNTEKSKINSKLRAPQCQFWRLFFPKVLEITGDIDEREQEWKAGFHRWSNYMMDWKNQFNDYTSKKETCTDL
Description: (§1) Inhibition of rat serum BChE using butyrylthiocholine iodide as substrate after 20 mins by Ellman's method

[4] = target: Sodium-dependent serotonin transporter (Homo sapiens, UniProt P31645); format: cell-based, HEK293
Sequence of Sodium-dependent serotonin transporter (P31645 whole entry): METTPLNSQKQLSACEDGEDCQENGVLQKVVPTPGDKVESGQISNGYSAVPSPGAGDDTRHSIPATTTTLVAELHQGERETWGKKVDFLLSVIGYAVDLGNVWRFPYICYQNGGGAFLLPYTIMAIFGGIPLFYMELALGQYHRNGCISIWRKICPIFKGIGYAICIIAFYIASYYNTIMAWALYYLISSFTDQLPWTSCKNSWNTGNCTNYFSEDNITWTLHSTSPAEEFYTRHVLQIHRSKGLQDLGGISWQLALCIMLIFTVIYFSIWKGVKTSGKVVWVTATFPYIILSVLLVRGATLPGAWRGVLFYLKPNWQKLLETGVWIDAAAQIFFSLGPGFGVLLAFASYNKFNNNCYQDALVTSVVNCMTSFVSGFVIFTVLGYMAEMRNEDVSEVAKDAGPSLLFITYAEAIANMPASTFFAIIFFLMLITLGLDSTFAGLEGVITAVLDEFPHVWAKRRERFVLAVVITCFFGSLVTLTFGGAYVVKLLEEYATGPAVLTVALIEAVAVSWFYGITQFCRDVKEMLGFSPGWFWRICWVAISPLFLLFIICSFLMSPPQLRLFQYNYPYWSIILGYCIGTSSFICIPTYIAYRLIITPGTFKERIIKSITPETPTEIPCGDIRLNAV
Description: Inhibition of SERT (unknown origin) expressed in HEK293 cells assessed as reduction in 5-HT uptake incubated for 30 mins

in vitro [5] = details: not told
Description: Effective permeability of the compound in PBS/ethanol buffer

Butyrylcholinesterase [6] = target: T3, Butyrylcholinesterase; remark: listed apart in the source
Description: as §1

SMILES	EC50 [1]	IC50 (Acetylcholinesterase; read-out: IC50)	Papp at 12 h (in vitro [2])	IC50 (Butyrylcholinesterase [3])	IC50 [4]	Papp (in vitro [5])	IC50 (Acetylcholinesterase)	IC50 (Butyrylcholinesterase [6])
N#Cc1ccc2[nH]cc(CCCN3CCN(c4cccc5nc6c(c(N)c45)CCCC6)CC3)c2c1	52 nM	1820 nM	5.46 ×10⁻⁶ cm/s	420 nM				
N#Cc1ccc2[nH]cc(CCCCN3CCN(c4cccc5c(N)c6c(nc45)CCCC6)CC3)c2c1	1.55 nM	2330 nM	4.43 ×10⁻⁶ cm/s	310 nM				
N#Cc1ccc2[nH]cc(C(=O)CCCN3CCN(c4cccc5c(N)c6c(nc45)CCCC6)CC3)c2c1	35 nM	3310 nM	1.61 ×10⁻⁶ cm/s	1850 nM				
N#Cc1ccc2[nH]cc(CCCCN3CCN(c4cccc5nc6c(c(N)c45)CCCC6)CC3)c2c1	0.36 nM	1720 nM	5.11 ×10⁻⁶ cm/s	340 nM	20.4 nM			
Nc1c2c(nc3cccc(N4CCN(CCCCc5c[nH]c6ccccc56)CC4)c13)CCCC2	1.2 nM	1440 nM	3.52 ×10⁻⁶ cm/s	390 nM				
N#Cc1ccc2[nH]cc(CCN3CCN(c4cccc5nc6c(c(N)c45)CCCC6)CC3)c2c1	> 10000 nM	2100 nM	4.48 ×10⁻⁶ cm/s	1130 nM				
COc1ccc2[nH]cc(CCCCN3CCN(c4cccc5nc6c(c(N)c45)CCCC6)CC3)c2c1	< 0.14 nM	1620 nM	4.53 ×10⁻⁶ cm/s	400 nM	229 nM			
CC1COc2c(N3CCN(C)CC3)c(F)cc3c2N1CC(C(=O)O)C3=O (stereo not drawn)			0.4 ×10⁻⁶ cm/s			0.8 ×10⁻⁶ cm/s		
N#Cc1ccc2[nH]cc(C(=O)CCCN3CCN(c4ccc5nc6c(c(N)c5c4)CCCC6)CC3)c2c1	1560 nM	2910 nM	1.04 ×10⁻⁶ cm/s	250 nM				
Nc1c2c(nc3cccc(N4CCN(CCCCc5c[nH]c6ccc(Cl)cc56)CC4)c13)CCCC2	0.75 nM		2.74 ×10⁻⁶ cm/s				Nd(Insoluble)	Nd(Insoluble)
N#Cc1ccc2[nH]cc(C(=O)CCCN3CCN(c4ccc5c(N)c6c(nc5c4)CCCC6)CC3)c2c1	567 nM	1980 nM	1.68 ×10⁻⁶ cm/s	370 nM				
Nc1c2c(nc3cccc(N4CCN(CCCCc5c[nH]c6ccc(Br)cc56)CC4)c13)CCCC2	0.35 nM		3.05 ×10⁻⁶ cm/s				Nd(Insoluble)	Nd(Insoluble)
N#Cc1ccc2[nH]cc(CCCCN3CCN(c4cccc5nc6c(c(N)c45)CCC6)CC3)c2c1	0.58 nM	2360 nM	4.38 ×10⁻⁶ cm/s	100 nM	22.1 nM			
N#Cc1ccc2[nH]cc(C(=O)CCCN3CCN(c4cccc5nc6c(c(N)c45)CCCC6)CC3)c2c1	62.4 nM	1360 nM	1.33 ×10⁻⁶ cm/s	390 nM				
COC(=O)c1ccc2[nH]cc(CCCCN3CCN(c4cccc5nc6c(c(N)c45)CCCC6)CC3)c2c1	< 0.14 nM	2220 nM	6.22 ×10⁻⁶ cm/s	410 nM	314 nM			
N#Cc1ccc2[nH]cc(CCCCN3CCN(c4ccc5c(N)c6c(nc5c4)CCCC6)CC3)c2c1	28.8 nM	5100 nM	2.99 ×10⁻⁶ cm/s	250 nM				
Nc1c2c(nc3cccc(N4CCN(CCCCc5c[nH]c6ccc(F)cc56)CC4)c13)CCCC2	0.72 nM		3.76 ×10⁻⁶ cm/s				Nd(Insoluble)	Nd(Insoluble)
N#Cc1ccc2[nH]cc(CCCCN3CCN(c4ccc5nc6c(c(N)c5c4)CCCC6)CC3)c2c1	14.9 nM	10200 nM	3.55 ×10⁻⁶ cm/s	640 nM				
N#Cc1ccc2[nH]cc(CCCCN3CCN(c4cccc5nc6c(c(N)c45)CCCCC6)CC3)c2c1	146 nM	18300 nM	3.97 ×10⁻⁶ cm/s	230 nM				
CC(=O)Nc1c2c(nc3cccc(N4CCN(CCCCc5c[nH]c6ccc(C#N)cc56)CC4)c13)CCCC2	93.4 nM	5610 nM	1.92 ×10⁻⁶ cm/s	2920 nM				
Cc1ccc2[nH]cc(CCCCN3CCN(c4cccc5nc6c(c(N)c45)CCCC6)CC3)c2c1	0.6 nM	1120 nM	3.64 ×10⁻⁶ cm/s	360 nM				
COc1ccc(CCN2CCC(Nc3nc4ccccc4n3Cc3ccc(F)cc3)CC2)cc1 [ASTEMIZOLE]						11 ×10⁻⁶ cm/s		
N#Cc1ccc2[nH]cc(CCCCN3CCN(c4ccc5oc(C(N)=O)cc5c4)CC3)c2c1 [VILAZODONE]		21300 nM						
